How the values were obtained:
[1] = biological target: Cruzipain (Trypanosoma cruzi, UniProt P25779)
[2] = biological target: Rhodesain (Trypanosoma brucei rhodesiense, UniProt Q95PM0)
[3] = biological target: T1, Cathepsin B-like cysteine protease (Trypanosoma brucei, UniProt Q6R7Z5)
T1 sequence (Q6R7Z5 whole entry): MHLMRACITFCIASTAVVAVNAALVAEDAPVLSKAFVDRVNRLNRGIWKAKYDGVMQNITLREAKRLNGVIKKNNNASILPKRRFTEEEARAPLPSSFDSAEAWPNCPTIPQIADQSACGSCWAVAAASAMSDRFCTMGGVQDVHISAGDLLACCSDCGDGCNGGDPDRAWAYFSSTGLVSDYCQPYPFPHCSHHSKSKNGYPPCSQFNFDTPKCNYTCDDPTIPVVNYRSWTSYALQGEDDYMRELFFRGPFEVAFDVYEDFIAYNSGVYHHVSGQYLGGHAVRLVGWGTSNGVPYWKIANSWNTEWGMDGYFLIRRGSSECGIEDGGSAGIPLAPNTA

[4] = test system: Jurkat; assay: cells; conditions: Homo sapiens
[5] = test system: Trypanosoma brucei brucei; assay: microbe, parasite or virus in culture; conditions: Jurkat
[6] = biological target: Rhodesain (Trypanosoma brucei rhodesiense) (UniProt Q95PM0)
[7] = biological target: Cruzipain (Trypanosoma cruzi) (UniProt P25779); assay: Inhibition of Trypanosoma cruzi cruzain at 1 uM after 5 mins
Cruzipain (Trypanosoma cruzi), sequence (P25779 123-467 limits assumed): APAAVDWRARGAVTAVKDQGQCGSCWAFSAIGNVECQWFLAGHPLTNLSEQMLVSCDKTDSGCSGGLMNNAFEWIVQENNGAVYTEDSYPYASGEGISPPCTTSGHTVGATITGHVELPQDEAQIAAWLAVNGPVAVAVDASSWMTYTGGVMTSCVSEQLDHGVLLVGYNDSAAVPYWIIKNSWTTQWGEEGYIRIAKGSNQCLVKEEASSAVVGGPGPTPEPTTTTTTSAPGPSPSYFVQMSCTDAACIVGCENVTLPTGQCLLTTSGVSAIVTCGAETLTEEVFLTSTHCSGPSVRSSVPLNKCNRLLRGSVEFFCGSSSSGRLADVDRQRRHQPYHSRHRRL

Rhodesain (Trypanosoma brucei rhodesiense), sequence (Q95PM0 1-450): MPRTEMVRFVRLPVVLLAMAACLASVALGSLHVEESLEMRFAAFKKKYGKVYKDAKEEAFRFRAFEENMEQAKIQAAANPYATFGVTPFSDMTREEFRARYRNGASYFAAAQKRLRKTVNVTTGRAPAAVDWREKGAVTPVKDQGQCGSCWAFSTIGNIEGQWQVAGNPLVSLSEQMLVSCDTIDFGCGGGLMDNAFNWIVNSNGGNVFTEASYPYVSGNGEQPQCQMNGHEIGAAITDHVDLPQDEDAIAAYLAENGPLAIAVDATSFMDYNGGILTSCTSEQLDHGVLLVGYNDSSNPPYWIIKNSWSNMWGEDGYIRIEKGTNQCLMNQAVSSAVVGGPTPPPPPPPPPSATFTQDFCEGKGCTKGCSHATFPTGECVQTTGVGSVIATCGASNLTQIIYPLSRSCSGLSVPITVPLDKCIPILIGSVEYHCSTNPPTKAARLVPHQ
Rhodesain, sequence (Q95PM0 whole entry): as the sequence (Q95PM0 1-450) above
Cruzipain, sequence (P25779 whole entry): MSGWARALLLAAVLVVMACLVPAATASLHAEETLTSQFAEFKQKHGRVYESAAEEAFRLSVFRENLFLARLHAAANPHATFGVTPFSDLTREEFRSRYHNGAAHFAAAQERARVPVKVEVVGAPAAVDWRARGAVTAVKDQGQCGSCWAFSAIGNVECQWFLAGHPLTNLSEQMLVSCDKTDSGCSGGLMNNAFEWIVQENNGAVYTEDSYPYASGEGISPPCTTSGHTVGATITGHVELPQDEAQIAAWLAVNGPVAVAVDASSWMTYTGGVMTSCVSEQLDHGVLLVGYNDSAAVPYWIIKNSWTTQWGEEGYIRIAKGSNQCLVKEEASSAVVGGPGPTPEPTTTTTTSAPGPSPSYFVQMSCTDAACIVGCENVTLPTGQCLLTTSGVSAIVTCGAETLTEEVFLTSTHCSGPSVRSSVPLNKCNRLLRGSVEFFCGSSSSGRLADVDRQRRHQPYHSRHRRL

SMILES | IC50 [1] [µM] | IC50 [2] [µM] | IC50 [3] [µM] | IC50 [4] [µM] | GI50 [5] [µM] | Ki [2] [µM] | Kinact [6] [s⁻¹] | inhibition [7] [%]
O=C(N[C@H](/C=C/S(=O)(=O)c1ccccc1)CCc1ccccc1)c1cc(-c2cccnc2)no1 | 1 | 0.01 | > 100 | > 100 | > 100 | – | – | –
Cc1nc(-c2ccccc2)sc1C(=O)N[C@H](/C=C/S(=O)(=O)c1ccccc1)CCc1ccccc1 | 10 | < 0.006 | > 100 | > 100 | > 100 | 0.32 | 0.0018 | < 5
O=C(N[C@H](/C=C/S(=O)(=O)c1ccccc1)CCc1ccccc1)[C@@H]1CCCC[C@H]1C(=O)c1ccc(Cl)cc1 | 0.05 | 0.1 | 16 | – | – | 0.8 | 0.00051 | –
CC(C)(C)c1cc(C(=O)N[C@H](/C=C/S(=O)(=O)c2ccccc2)CCc2ccccc2)n(Cc2ccccc2)n1 | – | – | – | – | – | – | – | 2
O=C(N[C@H](/C=C/S(=O)(=O)c1ccccc1)CCc1ccccc1)[C@H]1CCCC[C@@H]1C(=O)c1ccc(Cl)cc1 | > 100 | 56 | > 100 | – | – | 4.9 | 0.0007 | –
O=C(N[C@H](/C=C/S(=O)(=O)c1ccccc1)CCc1ccccc1)c1cc(-c2ccccc2)no1 | 2 | 0.01 | 40 | > 100 | > 100 | 13 | 0.0031 | –
O=C(N[C@H](/C=C/S(=O)(=O)c1ccccc1)CCc1ccccc1)c1cc(-c2ccccn2)no1 | 6 | 0.05 | > 100 | > 100 | 10 | 7.4 | 0.0038 | < 5
Cc1nc(-c2cnccn2)sc1C(=O)N[C@H](/C=C/S(=O)(=O)c1ccccc1)CCc1ccccc1 | 1 | 0.01 | > 100 | > 100 | 7 | 4.77 | 0.0079 | –
Cc1onc(-c2ccc(F)cc2)c1C(=O)N[C@H](/C=C/S(=O)(=O)c1ccccc1)CCc1ccccc1 | – | – | – | – | – | – | – | 12.5
Cc1nc(-c2cccnc2)sc1C(=O)N[C@H](/C=C/S(=O)(=O)c1ccccc1)CCc1ccccc1 | 2 | 0.03 | > 100 | 98 | 20 | – | – | –
O=C(N[C@H](/C=C/S(=O)(=O)c1ccccc1)CCc1ccccc1)c1ccccc1C(=O)c1ccc(Cl)cc1 | – | – | – | – | – | – | – | 3
CN1CCN(C(=O)N[C@@H](Cc2ccccc2)C(=O)N[C@H](/C=C/S(=O)(=O)c2ccccc2)CCc2ccccc2)CC1 [K-777] | – | – | 4 | – | 7 | – | – | –
O=C(N[C@H](/C=C/S(=O)(=O)c1ccccc1)CCc1ccccc1)c1cc(-c2ccncc2)no1 | 5 | 0.05 | > 100 | > 100 | 10 | 16.2 | 0.0091 | < 5
